The results in this text go back to ChEMBL document CHEMBL1201862, “PubChem BioAssay data set” (2004).

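The compound was tested at five concentrations on cells cultured in 96-well plates, with a 48-hour exposure period. GI50 marks 50% less growth.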 Activity calls are given as the source filed them. No stated cut-off is given here; in the data, active = GI50 up to about 1.1 µM and inactive = higher.

What all share (assay): growth of human tumour cells (NCI), 48 h
Assay [1] has as its system ACHN.
Assay [2] deals with CCRF-CEM.
The test system of assay [3] is HCT-15.
Assay [4] has as its system IGROV-1.
Assay [5] has as its system K562.
In assay [6] the test system is M14.
Assay [7] relates to NCI-H522.
The test system of assay [8] is OVCAR-4.
Assay [9] has as its system OVCAR-5.
Assay [10] concerns SF-268.
Assay [11] relates to SK-MEL-5.
Assay [12] concerns SNB-19.
Assay [13] has as its system UO-31.
The subject of assay [14] is SF-295.
The subject of assay [15] is HCT-116.
Assay [16] concerns NCI-H226.

`Cc1cc(C)nc(NS(=O)(=O)c2ccc(Nc3c4ccccc4nc4c(C(=O)Nc5ccc(S(=O)(=O)N=C(N)N)cc5)cccc34)cc2)n1`: the GI50 was > 100 µM (inactive) in assay [1]; > 100 µM (inactive) in assay [2]; greater than 100 µM in assay [3]; > 100 µM (inactive) in assay [4]; > 100 µM (inactive) in assay [5]; 90.4 µM (inactive) in [6]. The GI50 in assay [7] is > 100 µM (inactive); in assay [8], > 100 µM (inactive); in assay [9] it was 51.8 µM (inactive); in assay [10] it was > 100 µM (inactive); in [11], > 100 µM (inactive); in assay [12], 35.7 µM (inactive). Besides, the GI50 in assay [13] is 85.3 µM (inactive).
With `C#CCC(O)c1ccccc1C(O)CC#C` (configuration not stated), the GI50 in assay [1] is 75.5 µM (inactive); in assay [2] it was > 100 µM (inactive); in [3] it was greater than 100 µM; in [4], > 100 µM (inactive); in [5], > 100 µM (inactive); in assay [6] it was > 100 µM (inactive). The GI50 in assay [7] is 70.1 µM (inactive); in assay [8] it was > 100 µM (inactive); in assay [9], > 100 µM (inactive); in [14] it was > 100 µM (inactive); in assay [11], > 100 µM (inactive); in assay [12], > 100 µM (inactive). Also, the GI50 in [13] was > 100 µM (inactive).
`CCC(C)(C)C(=O)O[C@H]1C[C@@H](C)C=C2C=C[C@H](C)[C@H](CC[C@@H]3C[C@@H](O)CC(=O)O3)[C@H]21` [SIMVASTATIN]: the GI50 is 0.447 µM (active) in assay [1]; 11.3 µM (inactive) in [2]; 3.27 µM (inactive) in [15]; 1.12 µM in assay [3]; 0.647 µM (active) in assay [4]; 17.6 µM (inactive) in assay [5]. The GI50 was 2.25 µM (inactive) in assay [6], > 30 µM (inactive) in assay [8], 1.13 µM (inactive) in assay [14] and 3.72 µM (inactive) in assay [13].
In the case of `COC(=O)C12CCC(CC1=O)C2(C)C` (configuration not stated), the GI50 in assay [1] is > 100 µM (inactive); in assay [15] it was > 100 µM (inactive); in assay [3] it was greater than 100 µM; in assay [4], > 100 µM (inactive); in assay [5] it was > 100 µM (inactive); in assay [6], > 100 µM (inactive). Besides, the GI50 in assay [16], in assay [8], in assay [14], in assay [11], in [12] and in assay [13] was > 100 µM (inactive) in each case.
`CC1=C(C(=O)O)N2C(=O)[C@@H](NC(=O)C(c3ccccc3)N3CSC(=S)N(C(C)C)C3)C2SC1` (some centres not stated): the GI50 in assay [1] was > 100 µM (inactive); in assay [2] it was > 100 µM (inactive); in [15], > 100 µM (inactive); in [3], greater than 100 µM; in assay [4], > 100 µM (inactive); in [5], 74.1 µM (inactive). Moreover, the GI50 in assay [6] was > 100 µM (inactive); in assay [7], 30.4 µM (inactive); in assay [8], > 100 µM (inactive); in assay [9], > 100 µM (inactive); in assay [14], > 100 µM (inactive); in assay [11], > 100 µM (inactive). For the same compound, the GI50 in [12] and in assay [13] was > 100 µM (inactive) throughout.
For the compound `COc1cc(-c2c(C)c(C)nc(OC)c2C#N)cc(OC)c1OC`, the GI50 in assay [1] was > 100 µM (inactive); in [2], > 100 µM (inactive); in assay [15] it was > 100 µM (inactive); in [3], greater than 100 µM; in assay [4] it was > 100 µM (inactive); in assay [5], 58.7 µM (inactive). The GI50 in assay [6] is > 100 µM (inactive); in assay [16] it was 24.9 µM (inactive); in assay [8] it was 61 µM (inactive); in [10], > 100 µM (inactive); in [14], 53.6 µM (inactive); in [11], > 100 µM (inactive). In addition, the GI50 was > 100 µM (inactive) in [12] and 31.5 µM (inactive) in [13].
Turning to `N#CC(C#N)c1ccc(C(=O)N2CCC[C@H]2CO)cc1`, the GI50 in assay [1] was > 100 µM (inactive); in [2], > 100 µM (inactive); in assay [3], greater than 100 µM; in [4] it was > 100 µM (inactive); in [5] it was > 100 µM (inactive); in [6], > 100 µM (inactive). Further, the GI50 in assay [7] was > 100 µM (inactive); in [8] it was > 100 µM (inactive); in [9], > 100 µM (inactive); in [10], > 100 µM (inactive); in assay [14] it was > 100 µM (inactive); in [11] it was 0.471 µM (active). Also, the GI50 in assay [12] and in assay [13] was > 100 µM (inactive) in each case.
As for `COCCN1C2=CCCCC2=Nc2c1nc(N)[nH]c2=O`, the GI50 is > 100 µM (inactive) in assay [1]; > 100 µM (inactive) in [2]; > 100 µM (inactive) in assay [15]; greater than 100 µM in [3]; > 100 µM (inactive) in assay [4]; > 100 µM (inactive) in [5]. In addition, the GI50 in assay [6], in [16], in [7], in assay [9], in assay [10] and in [14] was > 100 µM (inactive) throughout. The GI50 in assay [11], in assay [12] and in [13] was > 100 µM (inactive) each time.
In the case of `N#CC(C(=O)C(N)=O)c1ccccc1Cl` (configuration not stated), the GI50 in assay [1] is > 100 µM (inactive); in [2], > 100 µM (inactive); in assay [15], > 100 µM (inactive); in assay [3], greater than 100 µM; in assay [4] it was > 100 µM (inactive); in assay [5] it was > 100 µM (inactive). In addition, the GI50 in assay [6], in assay [16], in assay [8], in [9], in assay [10] and in [14] was > 100 µM (inactive) each time. For the same compound, the GI50 in assay [11], in assay [12] and in assay [13] was > 100 µM (inactive) throughout.
Consider `CC(=O)OC1CC2(c3ccccc3)C(=O)c3ccccc3N2O1` (configuration not stated), for which the GI50 in assay [1] is > 100 µM (inactive); in assay [2], > 100 µM (inactive); in assay [15], > 100 µM (inactive); in assay [3], greater than 100 µM; in [4] it was > 100 µM (inactive); in assay [5], > 100 µM (inactive). Moreover, the GI50 in assay [6], in assay [16], in assay [7], in [8], in [10] and in assay [14] was > 100 µM (inactive) in each case. Further, the GI50 in assay [11], in assay [12] and in [13] was > 100 µM (inactive) in each case.
For the compound `CCCC1N2CCCCC2[C@@H]2c3[nH]c4ccccc4c3CCN12` (some centres not stated), the GI50 in [1] is > 100 µM (inactive); in assay [2], > 100 µM (inactive); in assay [15], > 100 µM (inactive); in [3], greater than 100 µM; in assay [4], > 100 µM (inactive); in assay [5], > 100 µM (inactive). Also, the GI50 in assay [6], in assay [8], in assay [9], in [10], in [14] and in assay [11] was > 100 µM (inactive) throughout. Also, the GI50 in [12] and in assay [13] was > 100 µM (inactive) in each case.
As for `O=c1cccccc1NCCCCCCCCCNc1cccccc1=O`, the GI50 in assay [1] is 4.28 µM (inactive); in [2] it was 5.94 µM (inactive); in assay [15], 2.74 µM (inactive); in assay [3], 12.2 µM; in assay [4], 19 µM (inactive); in assay [5], 3.35 µM (inactive). In addition, the GI50 in assay [6] is 10.9 µM (inactive); in assay [16] it was 15.7 µM (inactive); in assay [7], 13.9 µM (inactive); in [8] it was 1.78 µM (inactive); in assay [9], 17.5 µM (inactive); in assay [10], 14.1 µM (inactive). In addition, the GI50 in assay [14] was 9.64 µM (inactive); in [12] it was 11.5 µM (inactive); in assay [13], 12 µM (inactive).
On to `c1ccc(SC2(Sc3ccccc3)CCCC2)cc1`, for which the GI50 is > 100 µM (inactive) in assay [1]; > 100 µM (inactive) in [2]; > 100 µM (inactive) in assay [15]; greater than 100 µM in [3]; > 100 µM (inactive) in [5]; > 100 µM (inactive) in assay [6]. Moreover, the GI50 in assay [7], in assay [8], in assay [10], in assay [14], in assay [11] and in assay [12] was > 100 µM (inactive) each time. Further, the GI50 in [13] is > 100 µM (inactive).
As to `Oc1ccc2ccccc2c1/N=N/c1ccc(F)cc1`, the GI50 in assay [1] was > 100 µM (inactive); in [2], > 100 µM (inactive); in [15], > 100 µM (inactive); in assay [3] it was greater than 100 µM; in assay [4], > 100 µM (inactive); in [5] it was > 100 µM (inactive). Further, the GI50 in assay [6], in assay [7], in [8], in assay [9], in [10] and in assay [14] was > 100 µM (inactive) in each case. In addition, the GI50 was > 100 µM (inactive) in [11], > 100 µM (inactive) in assay [12] and 42.6 µM (inactive) in [13].
